Assays:
[1] = test system: calcineurin-NFAT signaling; experiment: NFAT-RE promoter luciferase reporter assay (NRE-Luc) in 293T cells; format: cell-based; settings: IM and PMA (10 nM), 1, 3 and 10 μM
Description: Fig. 5. […] Firefly luciferase activities were measured using One-Glo reagents. Luciferase activity in the sample with reporter plasmid alone was set to 1, and the relative luciferase activities were calculated. Means±s.d. were determined from two independent experiments.
Treatment with IM and phorbol 12-myristate 13-acetate (PMA) induced a dramatic increase in luciferase activity (∼20 fold) as a result of the nuclear translocation of NFATc1 and the subsequent transcriptional activation (Fig. 5B). In this situation, the overexpression of DYRK1A suppressed the stimulatory effect of IM and PMA by 75%, resulting in a 4.5-fold increase in luciferase activity compared with that of the control (Fig. 5B).
The firefly luciferase reporter assay was performed using a One-Glo Assay System (Promega) according to the manufacturer's instructions. The transcriptional activity of NFATc1 in 293T cells was measured with a reporter vector (pGL4.30 luc2P/NFAT-RE/Hygro) (Promega) that expresses the firefly luciferase gene under the control of an NFAT-RE promoter. 293T cells were transfected with the DYRK1A-expressing plasmid and reporter plasmid. On the next day, cells were treated with IM (2.5 μM) and phorbol-12-myristate-13-acetate (10 nM) along with the indicated amounts of inhibitors. Cells were further incubated for 8 h and then cell lysates were harvested to measure luciferase activity.

DYRK1A [2] = target: T1, DYRK1A (Homo sapiens, UniProt Q13627); parameters: expressed in transfected cells; host or cells: 293T cells; method as in Ogawa et al., 2010; settings: ref Ogawa et al., 2010; cited from earlier work
DYRK3 = target: T2, DYRK3 (Homo sapiens, UniProt O43781); experiment: In vitro kinase assay, recombinant human DYRK3 (Life Technologies); format: biochemical
T2 construct: purchased Life Technologies (Kinase Profiler service)
T2 sequence (O43781 1-588): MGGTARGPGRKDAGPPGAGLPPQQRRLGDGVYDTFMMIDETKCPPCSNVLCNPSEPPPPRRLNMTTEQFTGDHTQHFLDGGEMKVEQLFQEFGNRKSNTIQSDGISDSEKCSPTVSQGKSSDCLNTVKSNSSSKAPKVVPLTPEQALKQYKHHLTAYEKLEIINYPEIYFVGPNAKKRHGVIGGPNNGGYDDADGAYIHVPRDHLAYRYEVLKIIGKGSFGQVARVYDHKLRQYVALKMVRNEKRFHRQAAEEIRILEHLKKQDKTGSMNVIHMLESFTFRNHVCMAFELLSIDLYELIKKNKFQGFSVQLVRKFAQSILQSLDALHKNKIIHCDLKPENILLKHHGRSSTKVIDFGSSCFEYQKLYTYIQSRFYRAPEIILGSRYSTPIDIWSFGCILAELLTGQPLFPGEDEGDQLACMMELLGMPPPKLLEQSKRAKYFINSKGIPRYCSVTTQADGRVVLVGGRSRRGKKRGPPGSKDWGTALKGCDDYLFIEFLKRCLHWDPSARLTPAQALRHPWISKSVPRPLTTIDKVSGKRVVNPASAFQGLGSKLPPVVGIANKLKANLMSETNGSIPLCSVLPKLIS

DYRK4 = target: T3, DYRK4 (Homo sapiens, UniProt Q9NR20); experiment: In vitro kinase assay, recombinant human DYRK4 (Life Technologies); format: biochemical
T3 construct: purchased Life Technologies (Kinase Profiler service)
T3 sequence (Q9NR20 1-520): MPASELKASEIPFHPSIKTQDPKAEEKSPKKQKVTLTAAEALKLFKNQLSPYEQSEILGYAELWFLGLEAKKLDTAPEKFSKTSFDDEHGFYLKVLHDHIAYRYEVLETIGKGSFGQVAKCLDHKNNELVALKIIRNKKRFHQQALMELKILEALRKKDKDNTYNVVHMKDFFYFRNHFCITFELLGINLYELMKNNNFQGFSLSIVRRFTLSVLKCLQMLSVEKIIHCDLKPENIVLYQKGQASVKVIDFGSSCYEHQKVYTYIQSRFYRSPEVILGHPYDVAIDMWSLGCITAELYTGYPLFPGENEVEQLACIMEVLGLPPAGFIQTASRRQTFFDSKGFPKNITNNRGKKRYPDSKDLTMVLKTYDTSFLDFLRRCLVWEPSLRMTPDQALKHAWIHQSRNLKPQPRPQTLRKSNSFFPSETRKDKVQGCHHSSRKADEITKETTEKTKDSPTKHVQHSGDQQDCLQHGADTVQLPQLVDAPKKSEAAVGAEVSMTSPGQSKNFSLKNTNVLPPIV

[3] = test system: mnb-overexpressing Drosophila; experiment: Wing vein (LV5) defect rescue in mnb-overexpressing flies (MS1096-gal4); format: in vivo, Drosophila melanogaster
DYRK1A [4] = target: T1, DYRK1A; experiment: DYRK1A-mediated Tau (T212) phosphorylation in transfected 293T cells, western blot; format: cell-based; parameters: expressed in transfected cells; host or cells: 293T cells; settings: 6 h treatment, western blot, estimated, read-out: IC50 on Tau phosphorylation (T212) induced by DYRK1A overexpression

| IC50 (DYRK1A [4]) | SMILES | NFATc1-dependent transcriptional activation (NRE-Luc) suppressed by DYRK1A overexpression [1] | DYRK1A inhibitory activity compared with harmine (DYRK1A [2]) | IC50 (DYRK3) | IC50 (DYRK4) | concentration required for a similar rescue of wing (LV5) defect [3] |
| --- | --- | --- | --- | --- | --- | --- |
|  | CCN1/C(=C/C(C)=O)Sc2ccc(O)cc21 [INDY] | dose-dependently derepressed | slightly weaker inhibitory activities than harmine |  |  |  |
|  | COc1ccc2c(c1)[nH]c1c(C)nccc12 [harmine] | dose-dependently derepressed |  | 563 nM | 5880 nM | 10 to 25 µM |
| ~2000 nM | CCN1/C(=C/C(C)=O)Sc2ccc(OC(C)=O)cc21 [proINDY] | dose-dependently derepressed | slightly weaker inhibitory activities than harmine |  |  |  |

— publication PMC5007978, “A chemical with proven clinical safety rescues Down-syndrome-related phenotypes in through DYRK1A inhibition” (Disease Models & Mechanisms, 2016)
